Source: ChEMBL document CHEMBL5291721, “A preclinical secondary pharmacology resource illuminates target-adverse drug reaction associations of marketed drugs” (Nat Commun, 2023)

Legend:
[1] = biological target: Glutamate receptor ionotropic, NMDA 1 (Rattus norvegicus, UniProt P35439)
Histamine H2 receptor = Histamine H2 receptor (Homo sapiens, UniProt P25021); type: functional, cell-based
[2] = biological target: cGMP-inhibited 3',5'-cyclic phosphodiesterase 3A (Homo sapiens, UniProt Q14432); type: functional
Vasopressin V2 receptor = Vasopressin V2 receptor (Homo sapiens, UniProt P30518)
[3] = biological target: Growth hormone secretagogue receptor type 1 (Homo sapiens, UniProt Q92847)
B2 bradykinin receptor = biological target: T1, B2 bradykinin receptor (Homo sapiens, UniProt P30411)
T1 sequence (P30411 whole entry): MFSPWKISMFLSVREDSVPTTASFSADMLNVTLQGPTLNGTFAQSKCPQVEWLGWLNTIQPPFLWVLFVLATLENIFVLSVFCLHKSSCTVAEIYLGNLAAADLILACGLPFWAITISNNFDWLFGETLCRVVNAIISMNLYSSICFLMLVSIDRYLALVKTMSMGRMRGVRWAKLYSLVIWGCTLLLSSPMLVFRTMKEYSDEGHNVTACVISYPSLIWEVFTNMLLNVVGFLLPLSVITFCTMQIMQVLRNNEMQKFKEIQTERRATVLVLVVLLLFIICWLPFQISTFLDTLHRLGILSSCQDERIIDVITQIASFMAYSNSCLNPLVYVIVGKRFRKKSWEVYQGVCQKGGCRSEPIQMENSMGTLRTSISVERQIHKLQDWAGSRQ

D(1A) dopamine receptor = D(1A) dopamine receptor (Homo sapiens, UniProt P21728); type: functional, cell-based
[4] = biological target: T2, Alpha-2A adrenergic receptor (Homo sapiens, UniProt P08913); type: functional, cell-based
T2 sequence (P08913 whole entry): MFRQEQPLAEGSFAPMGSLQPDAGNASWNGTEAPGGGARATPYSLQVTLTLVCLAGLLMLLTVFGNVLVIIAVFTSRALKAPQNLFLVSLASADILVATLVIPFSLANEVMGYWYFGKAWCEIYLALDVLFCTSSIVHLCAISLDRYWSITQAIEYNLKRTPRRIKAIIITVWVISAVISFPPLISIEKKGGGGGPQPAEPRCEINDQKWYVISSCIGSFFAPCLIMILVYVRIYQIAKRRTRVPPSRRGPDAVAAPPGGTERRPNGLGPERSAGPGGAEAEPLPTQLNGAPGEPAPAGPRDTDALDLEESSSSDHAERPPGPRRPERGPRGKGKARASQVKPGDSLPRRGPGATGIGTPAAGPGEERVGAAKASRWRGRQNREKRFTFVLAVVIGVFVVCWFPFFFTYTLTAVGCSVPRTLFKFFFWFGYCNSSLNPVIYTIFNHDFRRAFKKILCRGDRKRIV

[5] = biological target: T3, Cholecystokinin receptor type A (Homo sapiens, UniProt P32238)
T3 sequence (P32238 whole entry): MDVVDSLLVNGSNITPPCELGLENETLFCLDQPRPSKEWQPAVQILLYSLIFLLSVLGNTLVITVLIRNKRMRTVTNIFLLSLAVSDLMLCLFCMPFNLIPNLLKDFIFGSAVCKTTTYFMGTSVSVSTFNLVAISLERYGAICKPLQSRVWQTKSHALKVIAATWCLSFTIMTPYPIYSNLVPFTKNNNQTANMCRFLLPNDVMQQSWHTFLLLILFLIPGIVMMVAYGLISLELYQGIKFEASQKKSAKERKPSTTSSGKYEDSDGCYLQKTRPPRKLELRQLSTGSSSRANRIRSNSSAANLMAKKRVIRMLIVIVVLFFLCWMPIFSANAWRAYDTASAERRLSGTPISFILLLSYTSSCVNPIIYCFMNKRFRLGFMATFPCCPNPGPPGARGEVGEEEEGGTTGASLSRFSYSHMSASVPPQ

[6] = biological target: T2, Alpha-2A adrenergic receptor; type: functional, cell-based; remark: listed apart in the source
[7] = biological target: Kappa-type opioid receptor (Homo sapiens, UniProt P41145)
[8] = biological target: Beta-1 adrenergic receptor (Homo sapiens, UniProt P08588); type: functional
[9] = biological target: T4, Amine oxidase [flavin-containing] A (Homo sapiens, UniProt P21397); type: functional
T4 sequence (P21397 whole entry): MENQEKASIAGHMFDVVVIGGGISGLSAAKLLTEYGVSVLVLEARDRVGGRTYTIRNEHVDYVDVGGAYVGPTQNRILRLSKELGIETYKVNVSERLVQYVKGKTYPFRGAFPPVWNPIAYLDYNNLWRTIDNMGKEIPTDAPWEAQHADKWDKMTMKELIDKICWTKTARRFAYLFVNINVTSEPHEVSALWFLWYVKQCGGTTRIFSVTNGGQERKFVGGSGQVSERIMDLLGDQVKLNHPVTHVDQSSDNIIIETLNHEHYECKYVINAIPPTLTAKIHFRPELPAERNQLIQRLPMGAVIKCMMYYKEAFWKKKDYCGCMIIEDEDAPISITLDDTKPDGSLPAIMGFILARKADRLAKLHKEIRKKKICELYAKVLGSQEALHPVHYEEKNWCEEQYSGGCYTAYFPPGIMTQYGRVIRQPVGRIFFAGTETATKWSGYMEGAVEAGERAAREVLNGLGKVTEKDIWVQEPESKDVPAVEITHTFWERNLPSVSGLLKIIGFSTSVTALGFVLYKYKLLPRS
Also: assay procedure not described here.

Sequence of Growth hormone secretagogue receptor type 1 (Q92847 whole entry): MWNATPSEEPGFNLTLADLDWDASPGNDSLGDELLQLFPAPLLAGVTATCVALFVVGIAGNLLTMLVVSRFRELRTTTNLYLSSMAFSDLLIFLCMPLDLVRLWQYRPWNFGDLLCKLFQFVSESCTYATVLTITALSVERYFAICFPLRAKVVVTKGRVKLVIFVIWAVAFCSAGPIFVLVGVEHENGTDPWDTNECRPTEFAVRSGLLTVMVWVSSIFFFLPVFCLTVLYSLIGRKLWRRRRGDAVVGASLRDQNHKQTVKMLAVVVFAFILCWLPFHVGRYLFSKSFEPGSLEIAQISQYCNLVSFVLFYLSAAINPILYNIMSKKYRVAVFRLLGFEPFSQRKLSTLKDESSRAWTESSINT
Sequence of Histamine H2 receptor (P25021 whole entry): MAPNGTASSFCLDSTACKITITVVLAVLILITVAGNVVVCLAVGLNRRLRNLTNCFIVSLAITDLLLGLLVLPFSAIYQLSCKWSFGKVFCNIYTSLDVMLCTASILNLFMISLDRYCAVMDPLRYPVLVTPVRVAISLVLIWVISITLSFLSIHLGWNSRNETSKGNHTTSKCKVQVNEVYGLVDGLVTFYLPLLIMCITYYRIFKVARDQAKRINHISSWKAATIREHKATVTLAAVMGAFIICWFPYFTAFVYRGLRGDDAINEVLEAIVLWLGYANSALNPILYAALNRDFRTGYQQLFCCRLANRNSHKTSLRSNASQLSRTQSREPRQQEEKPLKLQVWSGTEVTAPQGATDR
Sequence of D(1A) dopamine receptor (P21728 whole entry): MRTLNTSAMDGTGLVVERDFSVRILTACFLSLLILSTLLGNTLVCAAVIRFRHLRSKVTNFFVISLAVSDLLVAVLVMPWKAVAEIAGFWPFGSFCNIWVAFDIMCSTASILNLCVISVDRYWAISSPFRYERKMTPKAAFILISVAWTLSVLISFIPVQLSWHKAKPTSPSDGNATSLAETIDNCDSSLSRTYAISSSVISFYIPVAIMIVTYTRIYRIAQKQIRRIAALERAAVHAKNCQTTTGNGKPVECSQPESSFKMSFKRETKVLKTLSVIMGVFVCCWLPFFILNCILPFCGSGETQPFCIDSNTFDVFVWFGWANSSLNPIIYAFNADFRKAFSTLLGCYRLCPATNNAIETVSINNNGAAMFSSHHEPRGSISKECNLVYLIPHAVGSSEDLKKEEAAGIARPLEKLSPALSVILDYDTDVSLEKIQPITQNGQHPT
Sequence of Vasopressin V2 receptor (P30518 whole entry): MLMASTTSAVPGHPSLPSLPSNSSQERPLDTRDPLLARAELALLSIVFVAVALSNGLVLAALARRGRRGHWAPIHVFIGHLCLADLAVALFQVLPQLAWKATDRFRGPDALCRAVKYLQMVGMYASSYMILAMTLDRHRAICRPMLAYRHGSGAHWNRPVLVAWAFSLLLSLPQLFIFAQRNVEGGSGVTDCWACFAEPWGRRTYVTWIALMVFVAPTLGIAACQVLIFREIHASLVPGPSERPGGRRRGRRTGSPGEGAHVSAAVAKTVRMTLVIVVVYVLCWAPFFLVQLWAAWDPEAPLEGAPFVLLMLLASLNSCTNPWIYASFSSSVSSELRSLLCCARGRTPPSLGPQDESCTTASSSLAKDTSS
Sequence of Beta-1 adrenergic receptor (P08588 whole entry): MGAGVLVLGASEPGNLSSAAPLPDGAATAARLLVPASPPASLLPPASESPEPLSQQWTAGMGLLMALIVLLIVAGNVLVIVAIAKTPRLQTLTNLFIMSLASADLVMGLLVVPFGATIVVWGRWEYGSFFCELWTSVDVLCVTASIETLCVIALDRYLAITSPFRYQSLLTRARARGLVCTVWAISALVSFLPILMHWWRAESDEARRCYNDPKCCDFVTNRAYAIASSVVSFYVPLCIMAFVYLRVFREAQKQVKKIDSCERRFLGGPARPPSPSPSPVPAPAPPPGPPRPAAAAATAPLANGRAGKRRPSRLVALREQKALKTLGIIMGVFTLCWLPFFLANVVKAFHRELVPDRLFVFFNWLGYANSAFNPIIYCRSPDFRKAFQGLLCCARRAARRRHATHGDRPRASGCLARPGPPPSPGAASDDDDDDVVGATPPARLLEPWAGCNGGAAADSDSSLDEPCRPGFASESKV
Sequence of Kappa-type opioid receptor (P41145 whole entry): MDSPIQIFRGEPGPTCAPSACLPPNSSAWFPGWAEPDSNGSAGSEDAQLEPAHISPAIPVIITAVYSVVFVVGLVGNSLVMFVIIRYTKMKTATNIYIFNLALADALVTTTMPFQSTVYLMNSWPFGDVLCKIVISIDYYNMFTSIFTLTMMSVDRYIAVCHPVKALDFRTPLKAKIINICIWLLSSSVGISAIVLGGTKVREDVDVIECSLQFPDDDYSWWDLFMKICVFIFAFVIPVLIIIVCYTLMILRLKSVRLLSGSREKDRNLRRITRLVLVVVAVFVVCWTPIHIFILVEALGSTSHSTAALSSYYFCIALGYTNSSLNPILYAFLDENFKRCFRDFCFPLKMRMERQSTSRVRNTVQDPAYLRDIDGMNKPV
Sequence of cGMP-inhibited 3',5'-cyclic phosphodiesterase 3A (Q14432 whole entry): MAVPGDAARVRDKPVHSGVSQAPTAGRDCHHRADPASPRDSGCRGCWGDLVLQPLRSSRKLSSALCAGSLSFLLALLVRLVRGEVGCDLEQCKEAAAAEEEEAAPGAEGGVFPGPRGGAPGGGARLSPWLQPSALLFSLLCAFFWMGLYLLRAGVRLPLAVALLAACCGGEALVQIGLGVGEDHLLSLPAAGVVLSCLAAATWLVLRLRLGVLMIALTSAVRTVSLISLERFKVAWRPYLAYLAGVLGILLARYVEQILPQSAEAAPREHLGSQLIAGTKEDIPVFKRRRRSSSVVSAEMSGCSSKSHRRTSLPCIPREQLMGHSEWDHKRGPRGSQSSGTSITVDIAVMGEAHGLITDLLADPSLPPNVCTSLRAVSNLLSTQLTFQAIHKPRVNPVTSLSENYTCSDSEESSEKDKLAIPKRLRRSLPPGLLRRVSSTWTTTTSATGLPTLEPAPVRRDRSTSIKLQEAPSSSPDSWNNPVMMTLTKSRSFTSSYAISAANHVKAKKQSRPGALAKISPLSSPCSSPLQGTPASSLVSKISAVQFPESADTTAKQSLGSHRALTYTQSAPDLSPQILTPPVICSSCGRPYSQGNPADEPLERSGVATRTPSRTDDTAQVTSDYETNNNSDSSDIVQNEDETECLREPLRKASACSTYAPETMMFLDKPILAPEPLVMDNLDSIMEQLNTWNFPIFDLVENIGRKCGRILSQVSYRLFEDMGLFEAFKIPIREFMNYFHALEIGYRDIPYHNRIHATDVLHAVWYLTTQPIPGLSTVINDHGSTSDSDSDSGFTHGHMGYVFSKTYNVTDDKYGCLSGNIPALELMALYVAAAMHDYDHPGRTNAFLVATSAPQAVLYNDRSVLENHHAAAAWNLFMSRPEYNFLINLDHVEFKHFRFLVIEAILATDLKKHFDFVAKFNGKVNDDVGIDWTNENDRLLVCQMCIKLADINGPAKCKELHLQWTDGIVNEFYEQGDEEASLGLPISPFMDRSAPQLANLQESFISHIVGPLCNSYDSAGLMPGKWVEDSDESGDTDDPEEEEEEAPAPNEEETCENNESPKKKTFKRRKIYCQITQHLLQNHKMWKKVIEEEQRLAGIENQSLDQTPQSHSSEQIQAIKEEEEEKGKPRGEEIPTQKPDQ

Compound	AC50 [1] [µM]	AC50 (Histamine H2 receptor) [µM]	AC50 [2] [µM]	AC50 (Vasopressin V2 receptor) [µM]	AC50 [3] [µM]	AC50 (B2 bradykinin receptor) [µM]	AC50 (D(1A) dopamine receptor) [µM]	AC50 [4] [µM]	AC50 [5] [µM]	AC50 [6] [µM]	AC50 [7] [µM]	AC50 [8] [µM]	AC50 [9] [µM]
CC(C)=CCOc1ccc(/C=C/C(=O)c2ccc(OCC=C(C)C)cc2OCC(=O)O)cc1 [SOFALCONE]	> 30	> 30	> 30	> 30	> 30	> 3	> 30	> 30	> 30	> 30	12	21	> 30
C[C@]12CC[C@H](O)CC1=CC[C@@H]1[C@@H]2CC[C@]2(C)C(c3cccnc3)=CC[C@@H]12 [ABIRATERONE]	> 10	> 10	> 30	> 30	> 30	> 30	> 10	> 10	> 30	> 10	> 10	> 30	> 10
CN(C)c1cc(NC(=O)CNC(C)(C)C)c(O)c2c1C[C@H]1C[C@H]3[C@H](N(C)C)C(O)=C(C(N)=O)C(=O)[C@@]3(O)C(O)=C1C2=O [TIGECYCLINE]	> 30	> 30	> 30	> 30	> 30	> 30	> 30	> 30	> 30	> 30	> 30	> 30	> 30
NS(=O)(=O)c1cc(C2(O)NC(=O)c3ccccc32)ccc1Cl (stereo unspecified) [CHLORTHALIDONE]	> 10	> 10	> 30	> 10	> 10	> 10	> 10	> 10	> 10	> 10	> 10	> 10	> 10
COc1ccc2c(c1)[C@]13CCCC[C@@H]1[C@H](C2)N(C)CC3 [DEXTROMETHORPHAN]	–	> 10	> 30	> 30	> 30	> 30	> 10	> 10	> 30	> 10	–	> 10	> 10
O=C(O)CSCC(=O)NC1CCSC1=O (stereo unspecified) [ERDOSTEINE]	> 30	> 30	> 30	> 30	> 30	> 30	> 30	> 30	> 30	> 30	> 30	> 30	> 30
O=C(CCCN1CCC2(CC1)C(=O)NCN2c1ccccc1)c1ccc(F)cc1 [SPIPERONE]	> 30	> 30	> 30	> 30	> 10	> 30	–	0.98	> 30	4.5	–	2.8	> 30
CNCCCC1c2ccccc2C=Cc2ccccc21 [PROTRIPTYLINE]	> 10	> 10	> 30	> 10	> 10	> 10	> 10	–	> 10	> 10	–	–	> 10
C[C@H]1C[C@H]2[C@@H]3CCC4=CC(=O)C=C[C@]4(C)[C@@]3(Cl)[C@@H](O)C[C@]2(C)[C@@]1(O)C(=O)CO [BECLOMETHASONE]	> 10	–	> 30	> 30	> 30	> 30	–	–	> 30	–	> 10	> 10	> 10
CN(C)C(=O)Oc1cc(OC(=O)N(C)C)cc(C(O)CNC(C)(C)C)c1 (stereo unspecified) [BAMBUTEROL]	–	–	–	> 30	> 30	> 30	–	–	> 30	–	–	> 30	–
